Target: T1, Motilin Receptor (Oryctolagus cuniculus, UniProt G1T803)
T1 construct: The muscle tissue was homogenized in 10 volumes of 50 mM Tris-Cl; from tissue; host or cells: rabbit colon smooth muscle, crude membrane homogenate
Assay: Motilin receptor binding, rabbit colon membranes, 125I porcine motilin
Parameters: Rabbit Colon % Inh / inhibition / % Inh (Rabbit colon): dose or concentration left out as unconfirmed
Conditions: rabbit colon membranes; for inhibition: read-out: Rabbit Colon % Inh; for IC50: read-out: Rabbit Colon IC50
Description: Rabbit colon was removed, dissected free from the mucosa and serosa, and diced into small pieces. The muscle tissue was homogenized in 10 volumes of 50 mM Tris-Cl, 10 mM MgCl2, 0.1 mg/ml bacitracin, and 0.25 mM Peflabloc, at pH 7.5 in a Polytron (29000 rpm, 4×15 seconds). The homogenate was centrifuged at 1000×g for 15 minutes and the supernatant discarded. The pellet was washed twice before being suspended in homogenizing buffer. The crude homogenate was resuspended through a 23 gauge needle before storing at −80° C. […] After 60 minutes at 30° C., the samples were cooled in ice, centrifuged in the cold at 13000×g for 1 minute. The pellet was washed twice with 1 ml of cold saline, the supernatant was aspirated, and the pellet at the bottom of the tube counted in a gamma counter. Non-specific binding was determined by the inclusion of 1 mM of unlabeled motilin. IC50 values were determined from Kaleidograph curves.

T1 sequence (G1T803 1-400): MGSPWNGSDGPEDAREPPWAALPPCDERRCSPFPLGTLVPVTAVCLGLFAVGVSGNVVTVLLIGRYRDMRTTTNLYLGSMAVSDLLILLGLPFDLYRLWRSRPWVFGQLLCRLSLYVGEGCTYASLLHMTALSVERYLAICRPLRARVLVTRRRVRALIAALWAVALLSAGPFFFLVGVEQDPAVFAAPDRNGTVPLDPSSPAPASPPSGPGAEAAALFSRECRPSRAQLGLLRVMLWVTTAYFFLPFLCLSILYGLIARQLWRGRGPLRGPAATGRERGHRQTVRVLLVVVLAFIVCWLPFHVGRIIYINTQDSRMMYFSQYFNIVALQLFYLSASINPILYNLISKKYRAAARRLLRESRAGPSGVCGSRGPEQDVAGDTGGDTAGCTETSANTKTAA

Compound	Rabbit Colon % Inh [%]	other results
O=C(c1ccc(F)cc1)N(CC1CCCC(N(Cc2ccccc2)C(=O)C(F)(F)F)C1)c1cccc(OCCN2CCOCC2)c1 (stereo not drawn) [compound 120]	–	inhibition: 69%; IC50: 954 nM
O=C(c1ccc(F)cc1)N(CC1CCCC(N(Cc2ccccc2)C(=O)C(Cl)(Cl)Cl)C1)c1cccc(OCCN2CCOCC2)c1 (stereo not drawn) [compound 122]	–	inhibition: 64%; IC50: 840 nM
CCN(Cc1ccccc1)C(=O)CCCCN(C(=O)c1ccc(C)cc1)c1cccc(OCCN2CCOCC2)c1 [compound 13]	21	–
O=C(Nc1ccccc1)N(CC1CCCC(N(Cc2cccc(Cl)c2)C(=O)c2ccc(-c3ccccc3)cc2)C1)c1cccc(OCCN2CCOCC2)c1 (stereo not drawn) [compound 50]	32	–
O=C(CCc1ccccc1)NC1CCCC(CN(C(=O)Nc2ccccc2)c2cccc(OCCN3CCOCC3)c2)C1 (stereo not drawn) [compound 78]	10	–
CCN(CC)CCOc1cccc(N(CC2CCCC(N(Cc3cccc(Cl)c3)C(=O)C(C)(C)C)C2)C(=O)c2ccc(F)cc2)c1 (stereo not drawn) [compound 233]	–	inhibition: 89%; IC50: 170 nM
O=C(Nc1ccccc1)N(CC1CCCC(N(Cc2cccc(Cl)c2)C(=O)C(Cl)(Cl)Cl)C1)c1cccc(OCCN2CCOCC2)c1 (stereo not drawn) [compound 47]	23	–
O=C(CCCC(=O)N(Cc1ccc(F)cc1)c1cccc(OCCN2CCCC2)c1)N(CCc1ccccc1)Cc1cccc(C(F)(F)F)c1 [compound 200]	–	inhibition: 92%; IC50: 41 nM
O=C(CCC(=O)N(Cc1ccc(F)cc1)c1cccc(OCCN2CCOCC2)c1)N(CCc1ccccc1)Cc1ccccc1 [compound 128]	–	inhibition: 75%; IC50: 230 nM
COc1cccc(C(=O)N(Cc2cccc(Cl)c2)C2CCCC(CN(C(=O)c3ccc(F)cc3)c3cccc(OCCN4CCOCC4)c3)C2)c1 (stereo not drawn) [compound 106]	–	inhibition: 69%; IC50: 1050 nM
CN(CCOc1cccc(N(CC2CCCC(N(Cc3cccc(Cl)c3)C(=O)C(C)(C)C)C2)C(=O)c2ccc(F)cc2)c1)Cc1ccccc1 (racemic) [compound 232]	62	–
O=C(c1ccc(F)cc1)N(CC1CCCC(N(Cc2ccccc2)C(=O)Nc2ccccc2)C1)c1cccc(OCCN2CCOCC2)c1 (stereo not drawn) [compound 125]	25	–
O=C(Nc1ccccc1)N(CC1CCCC(N(Cc2ccccc2)C(=O)c2cccc([N+](=O)[O-])c2)C1)c1cccc(OCCN2CCOCC2)c1 (stereo not drawn) [compound 45]	–	inhibition: 67%; IC50: 1160 nM
O=C(Nc1cccc(OCCN2CCOCC2)c1)C1=C(C(=O)N(CCc2ccccc2)Cc2ccccc2)CCC1 [compound 156]	18	–
O=C(c1ccc(F)cc1)N(CC1CCCC(N(Cc2cccc(Cl)c2)C(=O)Cc2ccc(F)cc2)C1)c1cccc(OCCN2CCOCC2)c1 (stereo not drawn) [compound 249]	22	–
O=C(CCC(=O)N(Cc1ccc(C(F)(F)F)cc1)c1cccc(OCCN2CCOCC2)c1)N(CCc1ccccc1)Cc1ccccc1 [compound 167]	42	–
CCN(Cc1ccc(C)cc1)C(=O)CCCN(C(=O)c1ccc(C)cc1)c1cccc(OCCN2CCOCC2)c1 [compound 32]	12	–
CN(C)CCOc1ccc(N(Cc2ccc(F)cc2)C(=O)CCCC(=O)N(CCc2ccccc2)Cc2ccccc2)cc1 [compound 194]	23	–
O=C(Nc1ccccc1)N(CC1CCCC(N(Cc2cc(Cl)cc(Cl)c2)C(=O)C(Cl)(Cl)Cl)C1)c1cccc(OCCN2CCOCC2)c1 (stereo not drawn) [compound 60]	–	inhibition: 65%; IC50: 660 nM
O=C(NC1CCCC(CN(C(=O)Nc2ccccc2)c2cccc(OCCN3CCOCC3)c2)C1)c1cccc([N+](=O)[O-])c1 (stereo not drawn) [compound 80]	34	–
O=C(c1ccc(F)cc1)N(CC1CCCC(N(Cc2cccc(Cl)c2)C(=O)c2cccc([N+](=O)[O-])c2)C1)c1cccc(OCCN2CCOCC2)c1 (stereo not drawn) [compound 102]	47	–
O=C(c1ccc(F)cc1)N(CC1CCCC(N(Cc2cccc(Cl)c2)C(=O)c2ccc3ccccc3c2)C1)c1cccc(OCCN2CCOCC2)c1 (stereo not drawn) [compound 103]	2	–
CN(Cc1ccccc1)C(=O)CCCN(C(=O)c1ccc(F)cc1)c1cccc(OCCN2CCOCC2)c1 [compound 18]	0	–
O=C(CCc1ccccc1)N[C@@H](Cc1ccccc1)C(=O)N(Cc1ccc(F)cc1)c1cccc(OCCN2CCOCC2)c1 [compound 130]	8	–
O=C(c1ccc(F)cc1)N(CC1CCCC(N(Cc2cccc(Cl)c2)C(=O)C(c2ccccc2)c2ccccc2)C1)c1cccc(OCCN2CCOCC2)c1 (stereo not drawn) [compound 101]	59	–

Compound	Rabbit Colon % Inh [%]	other results
O=C(Nc1ccccc1)N(CC1CCC(N(Cc2cccc(Cl)c2)C(=O)c2ccco2)CC1)c1cccc(OCCN2CCOCC2)c1 (stereo not drawn) [compound 185]	0	–
O=C(c1ccc(F)cc1)N(CC1CCCC(N2C(=O)c3ccc(F)cc3C2=O)C1)c1cccc(OCCN2CCOCC2)c1 (stereo not drawn) [compound 251]	0	–
O=C(Nc1ccccc1)N(CC1CCCC(N(Cc2ccc(Cl)c(Cl)c2)C(=O)C(Cl)(Cl)Cl)C1)c1cccc(OCCN2CCOCC2)c1 (stereo not drawn) [compound 59]	23	–
CC(C)(C)c1ccc2c(c1)C(=O)N(C1CCCC(CN(C(=O)c3ccc(F)cc3)c3cccc(OCCN4CCOCC4)c3)C1)C2=O (stereo not drawn) [compound 250]	0	–
O=C(NC1CCCC(CN(C(=O)Nc2ccccc2)c2cccc(OCCN3CCOCC3)c2)C1)c1ccc2ccccc2c1 (stereo not drawn) [compound 79]	39	–
COc1cccc(CC(=O)N[C@@H](Cc2ccccc2)C(=O)N(Cc2ccc(F)cc2)c2cccc(OCCN3CCOCC3)c2)c1 [compound 134]	0	–
CC(C)(C)CN(Cc1ccccc1)C(=O)c1cccc(CN(C(=O)c2ccc(F)cc2)c2cccc(OCCN3CCOCC3)c2)c1 [compound 140]	45	–
O=C(c1ccc(F)cc1)N(CC1CCCC(N2C(=O)C3CC3C2=O)C1)c1cccc(OCCN2CCOCC2)c1 (stereo not drawn) [compound 262]	18	–
O=C(c1ccc(F)cc1)N(CC1CCCC(N(Cc2cccc3ccccc23)C(=O)C(Cl)(Cl)Cl)C1)c1cccc(OCCN2CCOCC2)c1 (stereo not drawn) [compound 94]	28	–
O=C(CCCCN(C(=O)c1ccc(F)cc1)c1cccc(OCCN2CCOCC2)c1)N(Cc1ccccc1)Cc1ccccc1 [compound 29]	18	–
O=C(Nc1ccccc1)N(CC1CCCC(N(Cc2cccc(C(F)(F)F)c2)C(=O)C(Cl)(Cl)Cl)C1)c1cccc(OCCN2CCOCC2)c1 (stereo not drawn) [compound 62]	58	–
Cc1ccc(C(=O)N(CCCCC(=O)N(Cc2ccccc2)Cc2ccccc2)c2cccc(OCCN3CCOCC3)c2)cc1 [compound 28]	13	–
O=C(Nc1ccccc1)N(CC1CCCC(NCc2ccccc2)C1)c1cccc(OCCN2CCOCC2)c1 (stereo not drawn) [compound 84]	–	% Inh (Rabbit colon) (125I porcine motilin binding): 12%
O=C(CCC(=O)N(Cc1ccccc1F)c1cccc(OCCN2CCOCC2)c1)N(CCc1ccccc1)Cc1ccccc1 [compound 165]	–	inhibition: 63%; IC50: 550 nM
O=C(c1ccc(F)cc1)N(CC1CCC(N(Cc2ccccn2)C(=O)C(Cl)(Cl)Cl)CC1)c1cccc(OCCN2CCOCC2)c1 (stereo not drawn) [compound 174]	0	–
O=C(CCCN(C(=O)c1ccc(F)cc1)c1cccc(OCCN2CCOCC2)c1)N(CCCc1ccccc1)Cc1ccccc1 [compound 144]	54	–
Cc1ccc(S(=O)(=O)N(CCCC(=O)N(CCc2ccccc2)Cc2ccccc2)c2cccc(OCCN3CCOCC3)c2)cc1 [compound 2]	9	–
O=C(c1ccc(F)cc1)N(CC1CCCC(N2C(=O)c3ccc4ccccc4c3C2=O)C1)c1cccc(OCCN2CCOCC2)c1 (stereo not drawn) [compound 252]	15	–
COc1ccc(CCN(Cc2ccccc2)C(=O)CCCN(C(=O)c2ccc(F)cc2)c2cccc(OCCN3CCOCC3)c2)cc1 [compound 146]	32	–
COc1cccc(C(=O)N(Cc2cccc(Cl)c2)C2CCC(CN(C(=O)Nc3ccccc3)c3cccc(OCCN4CCOCC4)c3)CC2)c1 (stereo not drawn) [compound 184]	6	–
CC(C)(C)C(=O)N(Cc1ccccc1)C1CCCC(CN(C(=O)c2ccc(F)cc2)c2cccc(OCCN3CCOCC3)c2)C1 (stereo not drawn) [compound 116]	–	inhibition: 61%; IC50: 772 nM
CCN(Cc1ccccc1)C(=O)CCCN(C(=O)Nc1ccccc1)c1cccc(OCCN2CCOCC2)c1 [compound 8]	18	–
O=C(N[C@@H](Cc1ccccc1)C(=O)N(Cc1ccc(F)cc1)c1cccc(OCCN2CCOCC2)c1)c1ccc(-c2ccccc2)cc1 [compound 132]	10	–
COc1cccc(CN(Cc2cccc(Cl)c2)C(=O)CCCC(=O)N(Cc2ccc(F)cc2)c2cccc(OCCN3CCCC3)c2)c1 [compound 198]	–	inhibition: 100%; IC50: 107 nM

— patent publication US7112586B2, “Substituted diamine derivatives useful as motilin antagonists” (Ortho-McNeil Pharmaceutical, Inc., priority 2000, dated 2006)
